According to US6875746B1, “Anticancer anthraquinones and method of use thereof” (Board of Trustees of Michigan State University, priority 2002, dated 2005):
≈ marks a conversion by molar mass, not a printed value. Entries after “also recorded” stand apart in the source; their conditions may differ. Read-outs that look alike come from different tables or passages of the source.

How the values were obtained:
MCF-7 (breast) = assay: cancer cell growth inhibition assay (sulforhodamine B), MCF-7; format: cell-based; settings: Homo sapiens, MCF7, read-out: GI50 ± SE, MCF-7 (breast)
Description: (§1) The compounds were tested for their activity against breast, central nervous system (CNS), colon, and lung human tumor cell lines. The breast (MCF-7), CNS(SF-268), and lung (NCI-H460) cultures were purchased from the National Cancer Institute (Bethesda, Md.) while the colon culture (HCT-116) was purchased from the American Type Culture Collection (Arlington, Va.). All cell lines were maintained in a humidified chamber at 37° C. with 5% CO2 in RPMI-1640 medium supplemented with 10% fetal bovine serum, penicillin (1 unit/100 mL), and streptomycin (1 μg/100 mL). All cell lines were sub-cultured according to their individual growth profiles in order to ensure exponential growth throughout the experiments. Breast (10,000 cells/well), CNS (15,000 cells/well), colon (7,500 cells/well), and lung (7,500 cells/well) cancer cells were aliquoted (100 μL) into 96-well plates and allowed to grow for 24 hours before the addition of the test compounds to the media. The compounds were dissolved in DMSO and diluted in sterile media as necessary to obtain the appropriate concentration. […] Test compounds, standards, and DMSO control were incubated for 48 hours, after which the assay was terminated via the addition of cold trichloroacetic acid. The plates were incubated for one hour at 4° C., washed with deionized water (five times), and air-dried. A 100 μL aliquot of 0.4% sulforhodamine B stain in 1% acetic acid was added to each well and the plates were incubated for 30 minutes at room temperature. Following incubation, the wells were rinsed with 1% acetic acid (five times) and the bound stain was dissolved in 100 μL of 10 mM TRIZMA base. The plates were shaken for five minutes on a gyrorotary shaker after which the absorbance of each well was recorded with an automated microplate reader (model EL800, Bio-Tek Instruments, Inc., Winooski, Vt.) at 515 nm. Three independent experiments were performed in triplicate using at least five drug concentrations inclusive of the 50% growth inhibitory concentration. Results are expressed as the concentration of compound required to inhibit cellular growth 50% (GI50) ±SE.

[1] = test system: breast (MCF-7), CNS (SF-268), colon (HCT-116) and lung (NCI-H460) human tumor cell lines; assay: cancer cell growth inhibition assay, statements on the four cell lines together; format: cell-based; settings: MCF-7, SF-268, HCT-116, NCI-H460
Description: as §1, with “Results are expressed as the concentration of compound required to inhibit cellular growth 50% (GI50) ±SE.” left out

NCI-H460 (lung) = assay: cancer cell growth inhibition assay (sulforhodamine B), NCI-H460; format: cell-based; settings: Homo sapiens, read-out: GI50 ± SE, NCI-H460 (lung)
Description: as §1

HCT-116 (colon) = assay: cancer cell growth inhibition assay (sulforhodamine B), HCT-116; format: cell-based; settings: Homo sapiens, read-out: GI50 ± SE, HCT-116 (colon)
Description: as §1

[2] = test system: NCI-H460 human large cell carcinoma cells; assay: MTT cell viability assay, NCI-H460; format: cell-based; settings: at GI50 concentration, 48 hours, FIG. 6
Description: (§2) In this example, compounds 1, 1a, 2, 2a, 3, 4, 6, and 8 were tested for cell toxicity using an 3-[4,5-dimethylthiazol-2-yl]-2,5-diphenyltetrazolium bromide (MTT) cell viability assay. The assay monitors the conversion of MTT to the dye, formazan, by viable cells. The formazan crystals form a precipitate which is dissolved in DMSO and analyzed by spectroscopy. MTT is not converted to formazan by dead cells. Therefore, the amount of dye detected is inversely related to the toxicity of the compound being tested.
(§3) The cancer cells used were HCT 116 (colon carcinoma, human, batch # F-11276), SF-268 (CNS, glioblastoma, human, 0503138), NCI-H460 (lung, large cell carcinoma, human, 503473), and MCF-7 (breast, mammary adenocarcinoma, human, 0501975) were procured from NCI, NIH.
(§4) The cells were grown in RPMI 1640 media supplemented with 10% fetal bovine serum and maintained at 37° C. in a humidified atmosphere of 5% CO2. Cells were seeded in 96 well plates at a density of 2000 cells per well. […] To each well, 200 μL of DMSO was added immediately, shaken for 5 min, and optical density of each well was recorded at 570 nm using Universal Microplate Reader. […]
(§5) The average optical densities of three wells for each sample tested and of DMSO control were calculated. The average optical densities of samples and of DMSO control from the replicates were then calculated. […]

SF-268 (CNS) = assay: cancer cell growth inhibition assay (sulforhodamine B), SF-268; format: cell-based; settings: Homo sapiens, read-out: GI50 ± SE, SF-268 (CNS)
Description: as §1

[3] = test system: SF-268 human CNS glioblastoma cells; assay: MTT cell viability assay, SF-268; format: cell-based; settings: at GI50 concentration, 48 hours, FIG. 5; compared with 8, 4, 6 and mixture 1a and 2a
Description: as §2, §3, §4, §5

[4] = test system: colon (HT-29) tumor cell line; settings: Li and McLaughlin, J. Nat. Prod. 52: 660-662 (1989); cited from earlier work
[5] = test system: nasal (KBMRI) tumor cell line; settings: Li and McLaughlin, J. Nat. Prod. 52: 660-662 (1989); cited from earlier work
[6] = test system: lung (A-549) tumor cell line; settings: Li and McLaughlin, J. Nat. Prod. 52: 660-662 (1989); cited from earlier work
[7] = test system: HCT 116 human colon carcinoma cells; assay: MTT cell viability assay, HCT 116; format: cell-based; settings: at GI50 concentration, 48 hours, FIG. 4
Description: as §2, §3, §4, §5

[8] = 48 hours incubation, sulforhodamine B stain
[9] = adriamycin values expressed in μM (footnote a), 48 hours

| SMILES | GI50 (MCF-7 (breast); [8]) | activity against all four cancer cell lines (in words) [1] | GI50 (NCI-H460 (lung); [8]) | GI50 (HCT-116 (colon); [8]) | toxicity in MTT assay, NCI H460 (Lung cancer) [2] | GI50 (SF-268 (CNS); [8]) | toxicity in MTT assay, SF-268 (CNS cancer) [3] | ED50, colon (HT-29) [4] | ED50, nasal (KBMRI) [5] | ED50, lung (A-549) [6] | toxicity in MTT assay, HCT 116 (Colon cancer) [7] | GI50 (MCF-7 (breast); [9]) | GI50 (NCI-H460 (lung); [9]) | GI50 (HCT-116 (colon); [9]) | GI50 (SF-268 (CNS); [9]) |
| --- | --- | --- | --- | --- | --- | --- | --- | --- | --- | --- | --- | --- | --- | --- | --- |
| O=C(O)c1cc(O)c2c(c1)C(=O)c1cccc(O)c1C2=O [compound 8, 1,8-dihydroxy-3-carboxy anthraquinone] | 17.2 ± 0.8 µg/mL | moderate activity | 15.4 ± 1.7 µg/mL | 21.1 ± 1.8 µg/mL | lest toxic | 16.3 ± 1.8 µg/mL |  |  |  |  |  |  |  |  |  |
| O=C1c2cccc(O)c2C(=O)c2c1cc(CO)c(O)c2O [compound 6, 1,2,8-trihydroxy-3-hydroxymethyl anthraquinone] | 2.8 ± 0.3 µg/mL | consistent activity; also recorded: concentrations similar to that of compound 3 | 7.3 ± 0.7 µg/mL | 5 ± 0.3 µg/mL |  | 3.8 ± 0.7 µg/mL |  |  |  |  |  |  |  |  |  |
| Cc1cc2c(c(O)c1O)C(=O)c1c(O)cccc1C2=O [compound 3, 1,2,8-trihydroxy-3-methyl anthraquinone] | 6.5 ± 1.2 µg/mL | consistent activity | 6.3 ± 0.8 µg/mL | 6.3 ± 0.8 µg/mL |  | 2.4 ± 1.8 µg/mL | higher toxicity | 2.8 µg/mL (≈ 10.4 µM) | 5.7 µg/mL (≈ 21.1 µM) | 3.1 µg/mL (≈ 11.5 µM) | higher toxicity than the rest of the anthraquinones |  |  |  |  |
| COc1cccc2c1C(=O)c1c(O)c3c(c(O)c1C2=O)C[C@@](O)(C(=O)CO)C[C@@H]3O[C@H]1C[C@H](N)[C@H](O)[C@H](C)O1 [adriamycin, reference compound] |  |  |  |  |  |  |  |  |  |  |  | 1.7 ± 0.2 µM | 1.7 ± 0.4 µM | 2.1 ± 0.6 µM | 1.9 ± 0.7 µM |
